Measured values published in ChEMBL document CHEMBL5303304, “EUbOPEN Chemogenomics Library - IncuCyte” (2023).

What was measured:
Type in all cases: toxicity, cell-based
HEK-293T = experiment: Incucyte cell viability with HEK293T; conditions: human, 10 µM, compound concentration 10 uM
Fibroblast = experiment: Incucyte cell viability with human fibroblast; conditions: 10 µM, compound concentration 10 uM
U2OS = experiment: Incucyte cell viability with U2OS; conditions: human, 10 µM, compound concentration 10 uM
Also: unitless GR value; below 1 slowed growth and below 0 cell loss.

Structure (SMILES)	Growth Rate (HEK-293T; 6 h, replicate number 1)	Growth Rate (HEK-293T; 6 h, replicate number 2)	Growth Rate (HEK-293T; 12 h, replicate number 1)	Growth Rate (HEK-293T; 12 h, replicate number 2)	Growth Rate (HEK-293T; 18 h, replicate number 1)	Growth Rate (HEK-293T; 18 h, replicate number 2)	Growth Rate (HEK-293T; 24 h, replicate number 1)	Growth Rate (HEK-293T; 24 h, replicate number 2)	Growth Rate (Fibroblast; 6 h, replicate number 1)	Growth Rate (Fibroblast; 12 h, replicate number 1)	Growth Rate (Fibroblast; 12 h, replicate number 2)	Growth Rate (Fibroblast; 18 h, replicate number 1)	Growth Rate (Fibroblast; 18 h, replicate number 2)	Growth Rate (Fibroblast; 24 h, replicate number 1)	Growth Rate (Fibroblast; 24 h, replicate number 2)	Growth Rate (U2OS; 12 h, replicate number 1)	Growth Rate (U2OS; 12 h, replicate number 2)	Growth Rate (U2OS; 24 h, replicate number 1)	Growth Rate (U2OS; 24 h, replicate number 2)	Growth Rate (Fibroblast; 6 h, replicate number 2)	further results
Cc1cc(-c2nc(-c3ccc(OC(F)(F)F)cc3)no2)nn1Cc1ccnc(N2CCN(C3CC3)CC2)c1	0.47	-0.22	0.32	0.08	0.25	0.18	0.37	0.3	0.9	0.3	0.36	0.22	0.2	0.26	0.5	0.94	0.51	0.88	0.71		Growth Rate (Fibroblast; 0 h, replicate number 1): -1; Growth Rate (U2OS; 18 h, replicate number 2): 0.61
CN(C)C/C=C/C(=O)Nc1cccc(S(=O)(=O)N2CCC(NC(=O)c3n[nH]cc3NC(=O)c3c(Cl)cc(Cl)cc3Cl)CC2)c1	-0.58	-0.85	-0.49	-0.7	-0.34	-0.61	-0.05	-0.34		0.8	0.45	0.26	0.09	0.12	-0.13	0.1	-0.3	-0.51	-0.42	0.98	Growth Rate (U2OS; 6 h, replicate number 2): 0.35; Growth Rate (U2OS; 18 h, replicate number 1): -0.42; Growth Rate (U2OS; 18 h, replicate number 2): -0.38
CC(C)(C)c1cnc(CSc2cnc(NC(=O)C3CCN(CC(=O)NCCOCCOCCOCCNc4cccc5c4C(=O)N(C4CCC(=O)NC4=O)C5=O)CC3)s2)o1 (stereo unspecified)	-0.56	-0.74	-0.47	-0.62	-0.38	-0.5	-0.29	-0.39	0.1	-0.04	-0.09	-0.02	-0.15	0.11	-0.12	0.31	0.19	-0.05	-0.04	0.11	Growth Rate (Fibroblast; 0 h, replicate number 1): -0.99; Growth Rate (U2OS; 0 h, replicate number 2): 0.98; Growth Rate (U2OS; 6 h, replicate number 1): 0.29; Growth Rate (U2OS; 6 h, replicate number 2): 0.25; Growth Rate (U2OS; 18 h, replicate number 1): 0.16; Growth Rate (U2OS; 18 h, replicate number 2): -0.02
O=C1CN(c2ccccc2F)C(NCCN2CCOCC2)=C1c1nc2cc(Br)ccc2c(=O)[nH]1	0.22	0.74	0.49	1	0.53		0.74	0.88								0.85	0.96	0.89	0.96		Growth Rate (Fibroblast; 0 h, replicate number 2): -0.37; Growth Rate (U2OS; 0 h, replicate number 1): 0.24; Growth Rate (U2OS; 6 h, replicate number 1): 0.56; Growth Rate (U2OS; 18 h, replicate number 1): 1
CC(C)(C)c1cc(NC(=O)c2csc(Nc3ccccn3)n2)no1	-0.14	-0.51	0.04	-0.02	0.08	0.01	0.31	0.2	0.76	0.84	0.03	0.21	0.35	0.31	0.35	0.72	0.69	0.65	0.97	-0.67	Growth Rate (U2OS; 0 h, replicate number 1): 0.58; Growth Rate (U2OS; 6 h, replicate number 1): 0.51; Growth Rate (U2OS; 18 h, replicate number 1): 0.81
CCS(=O)(=O)Nc1cccc(Oc2cc(F)cc(Nc3ccc(I)cc3F)c2NS(=O)(=O)C2CC2)c1	0.37	-0.1	0.34	0.42	0.6	0.5	0.61	0.48	0.24							0.89	0.78	0.78		-0.17	Growth Rate (Fibroblast; 0 h, replicate number 1): -1; Growth Rate (Fibroblast; 0 h, replicate number 2): 0.69; Growth Rate (U2OS; 6 h, replicate number 1): 0.85; Growth Rate (U2OS; 18 h, replicate number 1): 0.91; Growth Rate (U2OS; 18 h, replicate number 2): 1
CC(=O)c1c(C)c2cnc(Nc3ccc(N4CCN(CCCCNC(=O)COc5cccc6c5C(=O)N(C5CCC(=O)NC5=O)C6=O)CC4)cn3)nc2n(C2CCCC2)c1=O (stereo unspecified)	0.75		0.82	0.85	0.85	0.98	0.91		0.72					0.88		0.99		1			Growth Rate (Fibroblast; 0 h, replicate number 2): 0.14; Growth Rate (U2OS; 0 h, replicate number 2): 0.65; Growth Rate (U2OS; 6 h, replicate number 2): 0.97
Cc1c(CN2CCC3(CC2)CN(c2ncnc4sc(CC(F)(F)F)cc24)C3)ccc2c1cc(C#N)n2CC(N)=O	0.58	-0.05	0.59	0.34	0.63	0.44	0.69	0.47	-0.45	-0.4	-0.34	-0.16	-0.22	-0.05	0.09			0.94		-0.88	Growth Rate (Fibroblast; 0 h, replicate number 1): -1; Growth Rate (U2OS; 0 h, replicate number 2): 0.3; Growth Rate (U2OS; 6 h, replicate number 1): 1
CCCNc1ccc2ncc(-c3ccncc3)n2n1	-0.19	-0.3	-0.26	-0.13	-0.11		0.02	-0.01	0.14	0.2	0.09	0.11	0.04	0.13	0.09	0.48		0.15	0.45	0.27	Growth Rate (Fibroblast; 0 h, replicate number 2): 0.59; Growth Rate (U2OS; 0 h, replicate number 1): -1; Growth Rate (U2OS; 6 h, replicate number 1): 0.96; Growth Rate (U2OS; 18 h, replicate number 1): 0.14; Growth Rate (U2OS; 18 h, replicate number 2): 0.66
